Results taken from patent US5212182A, “Substituted quinolinyl- and naphthalenylbenzamides or benzylamines and related compounds useful as analgesics” (American Home Products Corpooration, priority 1990, dated 1993).

Columns and labels:
[1] = target: T1, BK2 receptor sites in guinea pig ileum (Cavia porcellus, UniProt O70526); assay: Bradykinin Receptor Binding Assay (3H-BK Binding, G. P. Ileum); parameters: species or system guinea pig (Hartley strain); settings: 80 pM 3H-BK
T1 construct: The distal portion of the ileum is removed and placed in ice cold homogenization buffer; from tissue; host or cells: distal ileum of adult male Hartley guinea pigs (animals from Charles River), washed membrane homogenate
T1 sequence (O70526 1-372): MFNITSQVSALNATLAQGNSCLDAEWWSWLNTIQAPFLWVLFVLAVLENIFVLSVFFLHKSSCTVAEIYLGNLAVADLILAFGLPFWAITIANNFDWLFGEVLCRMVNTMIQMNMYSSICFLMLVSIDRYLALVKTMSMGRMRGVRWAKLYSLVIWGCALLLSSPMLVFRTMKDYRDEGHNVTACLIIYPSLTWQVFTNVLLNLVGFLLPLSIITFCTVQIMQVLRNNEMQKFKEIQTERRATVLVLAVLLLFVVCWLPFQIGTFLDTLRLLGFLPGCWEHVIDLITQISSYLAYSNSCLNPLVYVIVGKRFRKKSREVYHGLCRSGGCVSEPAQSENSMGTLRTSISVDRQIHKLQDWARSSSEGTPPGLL
Procedure: Protocol for Bradykinin Receptor Binding Assay
The purpose of this assay is to identify compounds which compete specifically with tritiated bradykinin (^3 H--BK) for BK2 receptor sites in guinea pig ileum.
The guinea pig (adult male Hartley strain, 350-500 g, Charles River) is euthanized by stunning followed by decapitation. The distal portion of the ileum is removed and placed in ice cold homogenization buffer (25 mM N-[tris(hydroxymethyl)methyl]-2-aminoethanesulfonic acid (TES), 1 mM 1,10-phenanthroline, adjusted to pH 6.8 with NH4 OH). The contents of the ileal lumen are rinsed out with cold homogenization buffer. The tissue is cut into small pieces and homogenized in 20 volumes of homogenization buffer.
The homogenate is filtered through a surgical gauze sponge and centrifuged at 50,000×g for 20 minutes at 4° C. The supernatant fluid is discarded and the homogenization and centrifugation procedure is repeated. After discarding the supernatant fluid, the final pellet is resuspended in 40 volumes of assay buffer (25 mM TES, pH=6.8, 1 mM 1,10-phenanthroline, 1 mM (2RS, 3RS)-1,4-dimercapto-2,3-butanediol (Cleland's reagent), 2 μM captopril, 140 μg/mL bacitracin and 0.1% bovine serum albumin (BSA)). The homogenate is filtered once more through a surgical gauze sponge and kept on ice until use.
The assay is performed using only polypropylene pipet tips and polypropylene test tubes. Each tube receives 100 μL of 800 pM ^3 H--BK, 100 μL of the test compound solution or vehicle (TES assay buffer), and 100 μL of 25 mg/mL tissue homogenate in a total volume of 1 mL. The final concentration of ^3 H--BK is 80 pM. The final tissue concentration is 2.5 mg/mL. Compounds are screened at 100 μM or 10 μM. Nonspecific binding is determined in the presence of 1 μM unlabeled bradykinin. All determinations are made in triplicate. Three 100 μL aliquots of the 800 pM ^3 H--BK working solution are added directly to scintillation vials to determine the total added radioactivity.
The tubes are incubated for 90 minutes at 25° C. while being gently agitated on an orbital shaker. Bound ligand is separated from free ligand, using Whatman GF/B glass fiber filters (pretreated with 0.1% aqueous polyethyleneimine made neutral with HCl). Assay tubes and glass fiber filters are rinsed three times with 3 mL of cold physiological saline.
The filter discs are transferred to 20 mL scintillation vials. Ten mL of aqueous sample LSC cocktail (Aquassure, New England Nuclear) is added to each vial. After capping, the vials are agitated for 5 minutes on an orbital shaker. The samples are counted for ten minutes in a refrigerated liquid scintillation counter.
The following values are obtained:
Bns : Nonspecific binding
Bx : Total binding in the presence of the test compound
C: Control specific binding C=Bt -Bns
D: Specific binding in the presence of the test compound D=Bx -Bns
Percent of Control: D/C×100
Percent Inhibition: (1-D/C)×100
After calculation of Percent of Control for each dilution, the values are analyzed and the IC50 with its 95% confidence limits is determined on a Hewlett Packard 9816 computer using the program "PS-NONLIN" (generalizednon-linear regression with inverse prediction and graphics).
The test results are reported in the TABLE below under the heading 3H--BK Binding, G. P. Ileum.

[2] = test system: writhing response induced by bradykinin in mice; assay: Bradykinin-induced Writhing in Mice; assay type: in vivo, mice (male CD-1)
Procedure: Protocol for Bradykinin-induced Writhing in Mice
The purpose of this assay is to determine the ability of test drugs to inhibit the writhing response induced by bradykinin in mice. This test is a primary in vivo screen for bradykinin antagonist analgesics.
Groups of 10 mice each (male CD-1 mice (14-19 g) from Charles River, Kingston, NY, fasted overnight prior to experiment, but having free access to water) are used. Each mouse receives an intraperitoneal injection of 1 mg/kg PGE2 (0.1 mL/10 g body weight) followed 20 minutes later by an i.p. injection of bradykinin 0.5 mg/kg. The number of writhes per mouse is determined for 2 minutes after bradykinin injection. For a primary screen, drugs are administered orally at 20 mg/kg 1 hour prior to the bradykinin.
The percent inhibition of writhing obtained is calculated as follows: [formula]
Several logarithmically spaced doses are tested and the ED50 (dose which inhibits the writhing response by 50%) is determined by regression methods with inverse prediction.
The test results are reported in the TABLE below under the heading BK Induced Writhing in Mice.

[3] = test system: bradykinin-induced hyperalgesia (pain threshold) in rats; assay: Bradykinin-induced Hyperalgesia in Rats; assay type: in vivo, rats (female Sprague Dawley); settings: 100 mg/kg p.o.
Procedure: Protocol for Bradykinin-induced Hyperalgesia in Rats
The purpose of this assay is to evaluate analgesic activity of bradykinin antagonists in an inflammatory pain model in rats.
Animals (female Sprague Dawley rats (Charles River, Kingston, NY) 80-115 gms) are fasted overnight, with water given ad lib, if the compounds are to be administered orally. Ten rats are used per test group and six per normal group.
Test compounds are suspended in 0.5% Tween 80 in distilled water, and are administered orally 1 hour (or i.p. 5 minutes) prior to the injection of bradykinin.
The animals are randomized prior to drug administration in order to make the study blind. Bradykinin is injected, as the phlogistic agent, into the subplantar region of the right hindpaw of the rats, in a 0.01 mg/0.1 mL saline solution. The pain threshold is measured 1 minute later using a modification of the Randall-Selitto method, [Randall, et al., Archives International Pharmacodynamics, VIII N4, p 409-419 (1957)].
Animals are placed in a horizontal position with a hindpaw hanging down on the apparatus. The teflon point is placed on the foot pad and a steady pressure is applied, using a foot pedal. The endpoint is determined when the rat emits a squeak or forcefully attempts to remove its paw from the apparatus. […]
Drug effects are expressed as a percent change in pain threshold from bradykinin control values. […]

| Structure (SMILES) | inhibition at 10 µM [1] [%] | also measured |
| --- | --- | --- |
| O=C(NC1CCN(Cc2ccccc2)CC1)c1ccc(/C=C/c2ccnc3ccccc23)cc1 [Example 12, (E)-N-[1-(Phenylmethyl)-4-piperidinyl]-4-[2-(4-quinolinyl)ethenyl]benzamide] | 78.7 | BK Induced Writhing in Mice, % inhibition ([2]; 30 mg/kg i.p.): 10.0% |
| O=C(NC1CCN(Cc2ccccc2)CC1)c1ccc(OCc2ccnc3ccccc23)cc1 [Example 1, N-[1-(Phenylmethyl)-4-piperidinyl]-4-(4-quinolinylmethoxy)benzamide] |  | IC50 [1]: 9.1 µM; inhibition at 100 µM [1]: 98.8%; BK Induced Writhing in Mice, % inhibition ([2]; 30 mg/kg i.p.): 40.0%; BK Induced Writhing in Mice, % inhibition ([2]; 300 mg/kg p.o.): 52.0%; increase of BK induced pain threshold in rats [3]: 44.8% |
| CCCC(=O)N(Cc1ccc(OCc2ccnc3ccccc23)cc1)C1CCN(Cc2ccccc2)CC1 [Example 17, N-[1-(Phenylmethyl)-4-piperidinyl]-N-[[4-(4-quinolinylmethoxy)phenyl]methyl]butanamide] | 25.3 |  |
| CCCCN1CCC(NC(=O)c2ccc(OCc3ccc4ccccc4n3)cc2)CC1 [Example 4, N-(1-Butyl-4-piperidinyl)-4-(2-quinolinylmethoxy)benzamide] | 10.4 |  |
| O=C(NC1CCN(Cc2ccccc2)CC1)c1ccc(OCc2ccc3ccccc3n2)cc1 [Example 2, N-[1-(Phenylmethyl)-4-piperidinyl]-4-(2-quinolinylmethoxy)benzamide] |  | IC50 [1]: 33.6 µM; inhibition at 100 µM [1]: 93.8%; BK Induced Writhing in Mice, % inhibition ([2]; 30 mg/kg i.p.): 40.0%; BK Induced Writhing in Mice, % inhibition ([2]; 100 mg/kg p.o.): 32.0%; BK Induced Writhing in Mice, % inhibition ([2]; 200 mg/kg p.o.): 22.5% |
| O=C(NC1CCN(Cc2ccccc2)CC1)c1ccc(NCc2ccnc3ccccc23)cc1 [Example 18, N-[1-(Phenylmethyl)-4-piperidinyl]-4-[(4-quinolinylmethyl)amino]benzamide] | 8.1 |  |
| CCCCN1CCC(NC(=O)c2ccc(NCc3ccnc4ccccc34)cc2)CC1 [Example 19, N-(1-Butyl-4-piperidinyl)-4-[(4-quinolinylmethyl)amino]benzamide] | 32.8 |  |
| c1ccc(CN2CCC(NCc3ccc(OCc4ccnc5ccccc45)cc3)CC2)cc1 [Example 16, 1-(Phenylmethyl)-N-[[4-(4-quinolinylmethoxy)phenyl]methyl]-4-piperidinamine] | 27.4 |  |
| O=C(NC1CCN(Cc2ccccc2)CC1)c1cccc(OCc2ccc3ccccc3n2)c1 [Example 7, N-[1-(Phenylmethyl)-4-piperidinyl]-3-(2-quinolinylmethoxy)benzamide] | 43.2 |  |
| O=C(NC1CCN(Cc2ccccc2)CC1)c1ccccc1OCc1ccnc2ccccc12 [Example 6, N-[1-(Phenylmethyl)-4-piperidinyl]-2-(4-quinolinylmethoxy)benzamide] | 17.3 |  |
| CCCCN1CCC(NC(=O)c2ccc(OCc3cccc4ccccc34)cc2)CC1 [Example 11, N-(1-Butyl-4-piperidinyl)-4-(1-naphthalenylmethoxy)benzamide] | 11.1 |  |
| O=C(NC1CCN(Cc2ccccc2)CC1)c1cccc(OCc2ccnc3ccccc23)c1 [Example 5, N-[1-(Phenylmethyl)-4-piperidinyl]-3-(4-quinolinylmethoxy)benzamide] | 63.8 | IC50 [1]: 7.3 µM; BK Induced Writhing in Mice, % inhibition ([2]; 30 mg/kg i.p.): 31.0%; BK Induced Writhing in Mice, % inhibition ([2]; 200 mg/kg p.o.): 22.0% |
| O=C(NC1CCN(Cc2ccccc2)CC1)c1ccc(OCc2cc[n+]([O-])c3ccccc23)cc1 [Example 14, N-[1-(Phenylmethyl)-4-piperidinyl]-4-(4-quinolinylmethoxy)benzamide N-Oxide] | 30.2 |  |
| CCCCN1CCC(NC(=O)c2ccc(OCc3ccnc4ccccc34)cc2)CC1 [Example 3, N-(1-Butyl-4-piperidinyl)-4-(4-quinolinylmethoxy)benzamide] | 15.2 |  |
| O=C(NC1CCN(Cc2ccccc2)CC1)c1ccc(OCc2cccc3ccccc23)cc1 [Example 10, N-[1-(Phenylmethyl)-4-piperidinyl]-4-(1-naphthalenylmethoxy)benzamide] | 8.6 |  |
| O=C(NC1CCN(Cc2ccccc2)CC1)c1ccc(/C=C\c2ccnc3ccccc23)cc1 [Example 13, (Z)-N-[1-(Phenylmethyl)-4-piperidinyl]-4-[2-(4-quinolinyl)ethenyl]benzamide] | 35.8 |  |
| CCCCN1CCC(NC(=O)c2cccc(OCc3ccnc4ccccc34)c2)CC1 [Example 9, N-(1-Butyl-4-piperidinyl)-3-(4-quinolinylmethoxy)benzamide] | 21.4 |  |
| O=C(NC1CCN(Cc2ccccc2)CC1)c1ccccc1OCc1ccc2ccccc2n1 [Example 8, N-[1-(Phenylmethyl)-4-piperidinyl]-2-(2-quinolinylmethoxy)benzamide] | 8.4 |  |
| CCN(CC)C(=O)c1ccc(CN2CCC(NC(=O)c3ccc(OCc4ccnc5ccccc45)cc3)CC2)cc1 [Example 15, N-[1-[[4-[(Diethylamino)carbonyl]phenyl]methyl]-4-piperidinyl]-4-(4-quinolinylmethoxy)benzamide] | 30.2 |  |
